Test results as given in ChEMBL document CHEMBL2440076, “New triarylpyrazoles as broad-spectrum anticancer agents: design, synthesis, and biological evaluation” (Eur J Med Chem, 2013).

Key:
Assay type in all cases: functional
MDA-MB-468 = test: Growth inhibition of human MDA-MB-468 cells assessed as cell growth at 5X10'-6 M after 48 hrs by sulforhodamine B assay; conditions: MDA-MB-468, 48 h, read-out: Activity
[1] = Growth inhibition of human Hs 578T cells assessed as cell growth at 5X10'-6 M after 48 hrs by sulforhodamine B assay; conditions: read-out: Activity
IGROV-1 [2] = test: Growth inhibition of human IGROV1 cells assessed as cell growth at 5X10'-6 M after 48 hrs by sulforhodamine B assay; conditions: IGROV-1, 48 h, read-out: Activity
M14 = test: Growth inhibition of human M14 cells assessed as cell growth at 5X10'-6 M after 48 hrs by sulforhodamine B assay; conditions: M14, 48 h, read-out: Activity
NCI-H226 = test: Growth inhibition of human NCI-H226 cells assessed as cell growth at 5X10'-9 M after 48 hrs by sulforhodamine B assay; conditions: NCI-H226, 48 h, read-out: Activity
HOP-62 = test: Growth inhibition of human HOP62 cells assessed as cell growth at 5X10'-9 M after 48 hrs by sulforhodamine B assay; conditions: HOP-62, 48 h, read-out: Activity
A549 = test: Growth inhibition of human A549/ATCC cells assessed as cell growth at 5X10'-9 M after 48 hrs by sulforhodamine B assay; conditions: A549, 48 h, read-out: Activity
MOLT-4 [3] = test: Growth inhibition of human MOLT4 cells assessed as cell growth at 5X10'-9 M after 48 hrs by sulforhodamine B assay; conditions: MOLT-4, 48 h, read-out: Activity
CCRF-CEM [4] = test: Growth inhibition of human CCRF-CEM cells assessed as cell growth at 5X10'-9 M after 48 hrs by sulforhodamine B assay; conditions: read-out: Activity
LOX IMVI = test: Growth inhibition of human LOXIMVI cells assessed as cell growth at 5X10'-6 M after 48 hrs by sulforhodamine B assay; conditions: read-out: Activity
SF-295 = test: Growth inhibition of human SF295 cells assessed as cell growth at 5X10'-6 M after 48 hrs by sulforhodamine B assay; conditions: SF-295, 48 h, read-out: Activity
NCI-H322M = test: Growth inhibition of human NCI-H322M cells assessed as cell growth at 5X10'-6 M after 48 hrs by sulforhodamine B assay; conditions: read-out: Activity
SR = test: Growth inhibition of human SR cells assessed as cell growth at 5X10'-6 M after 48 hrs by sulforhodamine B assay; conditions: read-out: Activity
K562 [5] = test: Growth inhibition of human K562 cells assessed as cell growth at 5X10'-6 M after 48 hrs by sulforhodamine B assay; conditions: K562, 48 h, read-out: Activity
PC-3 = test: Growth inhibition of human PC3 cells assessed as cell growth at 5X10'-7 M after 48 hrs by sulforhodamine B assay; conditions: PC-3, 48 h, read-out: Activity
OVCAR-4 [6] = test: Growth inhibition of human OVCAR4 cells assessed as cell growth at 5X10'-7 M after 48 hrs by sulforhodamine B assay; conditions: OVCAR-4, 48 h, read-out: Activity
COLO 205 = test: Growth inhibition of human COLO205 cells assessed as cell growth at 5X10'-7 M after 48 hrs by sulforhodamine B assay; conditions: COLO 205, 48 h, read-out: Activity
MOLT-4 [7] = test: Growth inhibition of human MOLT4 cells assessed as cell growth at 5X10'-7 M after 48 hrs by sulforhodamine B assay; conditions: MOLT-4, 48 h, read-out: Activity
[8] = Growth inhibition of human Hs 578T cells assessed as cell growth at 5X10'-8 M after 48 hrs by sulforhodamine B assay; conditions: read-out: Activity
MDA-MB-231 [9] = test: Growth inhibition of human MDA-MB-231 cells assessed as cell growth at 5X10'-8 M after 48 hrs by sulforhodamine B assay; conditions: MDA-MB-231, 48 h, read-out: Activity
CAKI-1 [10] = test: Growth inhibition of human CAKI-1 cells assessed as cell growth at 5X10'-8 M after 48 hrs by sulforhodamine B assay; conditions: CAKI-1, 48 h, read-out: Activity
A498 [11] = test: Growth inhibition of human A498 cells assessed as cell growth at 5X10'-8 M after 48 hrs by sulforhodamine B assay; conditions: A498, 48 h, read-out: Activity
OVCAR-3 [12] = test: Growth inhibition of human OVCAR3 cells assessed as cell growth at 5X10'-8 M after 48 hrs by sulforhodamine B assay; conditions: OVCAR-3, 48 h, read-out: Activity
IGROV-1 [13] = test: Growth inhibition of human IGROV1 cells assessed as cell growth at 5X10'-8 M after 48 hrs by sulforhodamine B assay; conditions: IGROV-1, 48 h, read-out: Activity
SW-620 = test: Growth inhibition of human SW620 cells assessed as cell growth at 5X10'-8 M after 48 hrs by sulforhodamine B assay; conditions: SW-620, 48 h, read-out: Activity
UO-31 = test: Growth inhibition of human UO31 cells assessed as cell growth at 5X10'-5 M after 48 hrs by sulforhodamine B assay; conditions: UO-31, 48 h, read-out: Activity
ACHN = test: Growth inhibition of human ACHN cells assessed as cell growth at 5X10'-5 M after 48 hrs by sulforhodamine B assay; conditions: read-out: Activity
OVCAR-4 [14] = test: Growth inhibition of human OVCAR4 cells assessed as cell growth at 5X10'-5 M after 48 hrs by sulforhodamine B assay; conditions: OVCAR-4, 48 h, read-out: Activity
OVCAR-3 [15] = test: Growth inhibition of human OVCAR3 cells assessed as cell growth at 5X10'-5 M after 48 hrs by sulforhodamine B assay; conditions: OVCAR-3, 48 h, read-out: Activity
HCT-116 = test: Growth inhibition of human HCT116 cells assessed as cell growth at 5X10'-8 M after 48 hrs by sulforhodamine B assay; conditions: HCT-116, 48 h, read-out: Activity
NCI-H23 = test: Growth inhibition of human NCI-H23 cells assessed as cell growth at 5X10'-8 M after 48 hrs by sulforhodamine B assay; conditions: NCI-H23, 48 h, read-out: Activity
K562 [16] = test: Growth inhibition of human K562 cells assessed as cell growth at 5X10'-8 M after 48 hrs by sulforhodamine B assay; conditions: K562, 48 h, read-out: Activity
CCRF-CEM [17] = test: Growth inhibition of human CCRF-CEM cells assessed as cell growth at 5X10'-8 M after 48 hrs by sulforhodamine B assay; conditions: read-out: Activity
T47D = test: Growth inhibition of human T47D cells assessed as cell growth at 5X10'-9 M after 48 hrs by sulforhodamine B assay; conditions: read-out: Activity
MDA-MB-231 [18] = test: Growth inhibition of human MDA-MB-231 cells assessed as cell growth at 5X10'-9 M after 48 hrs by sulforhodamine B assay; conditions: MDA-MB-231, 48 h, read-out: Activity
CAKI-1 [19] = test: Growth inhibition of human CAKI-1 cells assessed as cell growth at 5X10'-9 M after 48 hrs by sulforhodamine B assay; conditions: CAKI-1, 48 h, read-out: Activity
A498 [20] = test: Growth inhibition of human A498 cells assessed as cell growth at 5X10'-9 M after 48 hrs by sulforhodamine B assay; conditions: A498, 48 h, read-out: Activity
U-251 = test: Growth inhibition of human U251 cells assessed as cell growth at 5X10'-9 M after 48 hrs by sulforhodamine B assay; conditions: U-251, 48 h, read-out: Activity

## COc1cc(-c2nn(-c3cccc(NC(=O)Nc4cc(C(F)(F)F)cc(C(F)(F)F)c4)c3)cc2-c2ccncc2)ccc1Cl
MDA-MB-468
  growth at 5 µM: -42%
[1]
  growth at 5 µM: -12%
IGROV-1 [2]
  growth at 5 µM: -42%
M14
  growth at 5 µM: -29%
NCI-H226
  growth at 0.005 µM: 97%
HOP-62
  growth at 0.005 µM: 100%
A549
  growth at 0.005 µM: 96%
MOLT-4 [3]
  growth at 0.005 µM: 104%
CCRF-CEM [4]
  growth at 0.005 µM: 101%
LOX IMVI
  growth at 5 µM: -90%
SF-295
  growth at 5 µM: -71%
NCI-H322M
  growth at 5 µM: -24%
SR
  growth at 5 µM: -9%
K562 [5]
  growth at 5 µM: -10%
PC-3
  growth at 0.5 µM: 33%
OVCAR-4 [6]
  growth at 0.5 µM: 73%
COLO 205
  growth at 0.5 µM: 93%
MOLT-4 [7]
  growth at 0.5 µM: 77%
[8]
  growth at 0.05 µM: 93%
MDA-MB-231 [9]
  growth at 0.05 µM: 95%
CAKI-1 [10]
  growth at 0.05 µM: 95%
A498 [11]
  growth at 0.05 µM: 82%
OVCAR-3 [12]
  growth at 0.05 µM: 109%
IGROV-1 [13]
  growth at 0.05 µM: 105%
SW-620
  growth at 0.05 µM: 95%
UO-31
  growth at 50 µM: -93%
ACHN
  growth at 50 µM: -34%
OVCAR-4 [14]
  growth at 50 µM: -21%
OVCAR-3 [15]
  growth at 50 µM: -78%
HCT-116
  growth at 0.05 µM: 106%
NCI-H23
  growth at 0.05 µM: 100%
K562 [16]
  growth at 0.05 µM: 99%
CCRF-CEM [17]
  growth at 0.05 µM: 94%
T47D
  growth at 0.005 µM: 101%
MDA-MB-231 [18]
  growth at 0.005 µM: 101%
CAKI-1 [19]
  growth at 0.005 µM: 95%
A498 [20]
  growth at 0.005 µM: 90%
U-251
  growth at 0.005 µM: 97%

## O=C(Nc1cccc(-n2cc(-c3ccncc3)c(-c3ccc(Cl)c(O)c3)n2)c1)Nc1cc(C(F)(F)F)cc(C(F)(F)F)c1
MDA-MB-468
  growth at 5 µM: -14%
[1]
  growth at 5 µM: -8%
IGROV-1 [2]
  growth at 5 µM: -12%
M14
  growth at 5 µM: -47%
NCI-H226
  growth at 0.005 µM: 98%
HOP-62
  growth at 0.005 µM: 95%
A549
  growth at 0.005 µM: 96%
MOLT-4 [3]
  growth at 0.005 µM: 106%
CCRF-CEM [4]
  growth at 0.005 µM: 95%
LOX IMVI
  growth at 5 µM: -94%
SF-295
  growth at 5 µM: -57%
NCI-H322M
  growth at 5 µM: 3%
SR
  growth at 5 µM: -11%
K562 [5]
  growth at 5 µM: -5%
PC-3
  growth at 0.5 µM: 41%
OVCAR-4 [6]
  growth at 0.5 µM: 65%
COLO 205
  growth at 0.5 µM: 93%
MOLT-4 [7]
  growth at 0.5 µM: 81%
[8]
  growth at 0.05 µM: 94%
MDA-MB-231 [9]
  growth at 0.05 µM: 92%
CAKI-1 [10]
  growth at 0.05 µM: 92%
A498 [11]
  growth at 0.05 µM: 86%
OVCAR-3 [12]
  growth at 0.05 µM: 111%
IGROV-1 [13]
  growth at 0.05 µM: 102%
SW-620
  growth at 0.05 µM: 101%
UO-31
  growth at 50 µM: -86%
ACHN
  growth at 50 µM: -95%
OVCAR-4 [14]
  growth at 50 µM: -74%
OVCAR-3 [15]
  growth at 50 µM: -94%
HCT-116
  growth at 0.05 µM: 102%
NCI-H23
  growth at 0.05 µM: 99%
K562 [16]
  growth at 0.05 µM: 108%
CCRF-CEM [17]
  growth at 0.05 µM: 92%
T47D
  growth at 0.005 µM: 97%
MDA-MB-231 [18]
  growth at 0.005 µM: 94%
CAKI-1 [19]
  growth at 0.005 µM: 97%
A498 [20]
  growth at 0.005 µM: 79%
U-251
  growth at 0.005 µM: 95%

## COc1cc(-c2nn(-c3cccc(NC(=O)Nc4ccc(Cl)c(Cl)c4)c3)cc2-c2ccncc2)ccc1Cl
MDA-MB-468
  growth at 5 µM: -29%
[1]
  growth at 5 µM: 11%
IGROV-1 [2]
  growth at 5 µM: -17%
M14
  growth at 5 µM: -29%
NCI-H226
  growth at 0.005 µM: 98%
HOP-62
  growth at 0.005 µM: 93%
A549
  growth at 0.005 µM: 98%
MOLT-4 [3]
  growth at 0.005 µM: 103%
CCRF-CEM [4]
  growth at 0.005 µM: 101%
LOX IMVI
  growth at 5 µM: -32%
SF-295
  growth at 5 µM: -26%
NCI-H322M
  growth at 5 µM: 15%
SR
  growth at 5 µM: -26%
K562 [5]
  growth at 5 µM: 5%
PC-3
  growth at 0.5 µM: 53%
OVCAR-4 [6]
  growth at 0.5 µM: 81%
COLO 205
  growth at 0.5 µM: 102%
MOLT-4 [7]
  growth at 0.5 µM: 78%
[8]
  growth at 0.05 µM: 94%
MDA-MB-231 [9]
  growth at 0.05 µM: 89%
CAKI-1 [10]
  growth at 0.05 µM: 93%
A498 [11]
  growth at 0.05 µM: 89%
OVCAR-3 [12]
  growth at 0.05 µM: 111%
IGROV-1 [13]
  growth at 0.05 µM: 103%
SW-620
  growth at 0.05 µM: 102%
UO-31
  growth at 50 µM: -11%
ACHN
  growth at 50 µM: 5%
OVCAR-4 [14]
  growth at 50 µM: 5%
OVCAR-3 [15]
  growth at 50 µM: -50%
HCT-116
  growth at 0.05 µM: 107%
NCI-H23
  growth at 0.05 µM: 101%
K562 [16]
  growth at 0.05 µM: 103%
CCRF-CEM [17]
  growth at 0.05 µM: 98%
T47D
  growth at 0.005 µM: 97%
MDA-MB-231 [18]
  growth at 0.005 µM: 92%
CAKI-1 [19]
  growth at 0.005 µM: 97%
A498 [20]
  growth at 0.005 µM: 87%
U-251
  growth at 0.005 µM: 96%
